Measured values as given in patent US20220088024A1, “METHODS FOR TREATING CANCER USING TOZADENANT” (Biotie Therapies, Inc., priority 2018, published 2022).
Where two headings read alike, the source gives them in different places.

Assay: Example 11: plasma pharmacokinetics (toxicokinetics) of tozadenant in mice after twice daily oral administration
Format: in vivo, Crl:CD1(ICR) mice
Details: Crl:CD1(ICR), mouse, plasma
Protocol: The plasma pharmacokinetics and exposure levels of tozadendant have been documented in mice after oral administration, the same route of administration as tozadenant was dosed in the oncology efficacy studies.
The PK of tozadenant in mice was compared across a range of doses and dose frequencies. […]
Groups of mice of the Crl:CD1(ICR) strain were dosed, as follows:
The vehicle for the tozadenant in this mouse PK study was 1.6% (w/v) Avicel RC-591 (FMC), 0.2% (v/v) Tween 80, 0.18% (w/v) methylparaben and 0.02% (w/v) propylparaben in reverse osmosis water, pH 6.0±0.3. The 1.6% (w/v) Avicel RC-591 (FMC) was supplied by Biopolymer International, Brussels, Belgium. The 0.2% (v/v) Tween 80, 0.18% (w/v) methylparaben and 0.02% (w/v) propylparaben in reverse osmosis water, pH 6.0±0.3 was supplied by and Sigma-Aldrich Co Ltd, Poole, UK. This is the same formulation used for the mouse oncology model oral dosing.
The test article was administered orally by gavage, as follows:
Groups 1 to 4: Twice for one day (0 and 8 hours apart relative to initial dose)
Group 5: Twice for one day (0 and 12 hours apart relative to initial dose)
Blood samples for toxicokinetics (0.25 mL nominal) were taken from all toxicokinetic animals (subgroup 2), as follows:
For animals dosed at 0, 8 or 12 hour intervals, sampling time with respect to dose was symmetrical in each animal, for example, if an animal was sampled 0.5 hours after the first dose, it was sampled 0.5 hours after the second dose. The second sample obtained from each animal was collected under terminal anaesthesia.
Samples were taken from the orbital sinus (with the exception of Group 3 animals at the 10 hour bleed, which were taken by cardiac puncture) under isoflurane anaesthesia into K2EDTA. Samples were gently inverted to ensure mixing with anticoagulant, placed on a blood roller for at least one minute and then placed in a Kryorack until centrifugation.
Centrifugation was carried out at approximately 4-8° C. within one hour of collection. The resultant plasma from all samples was separated, transferred to uniquely labelled clear polypropylene tubes and frozen immediately at approximately <−10 to −30° C. Samples were analyzed at Covance.
Tozadenant was quantitated using protein precipitation followed by liquid chromatography mass spectrometry technique for quantification. This bioanalytical method was previously established and validated for tozadenant in mouse plasma.

Structure (SMILES): COc1ccc(N2CCOCC2)c2sc(NC(=O)N3CCC(C)(O)CC3)nc12 [SYN-115, 4-hydroxy-4-methyl-piperidine-1-carboxylic acid (4-methoxy-7-morpholin-4-yl-benzothiazol-2-yl)-amide]
- Tmax (female, po, 2000 mg/kg/day, Group 5, Female, 2000 mg/kg/day (1000 mg/kg/dose), oral, dosing at 0, 12 hr, read-out: Tmax): 1.2 h
- Tmax (female, po, 2000 mg/kg/day, females, 0, 12 hour dosing, read-out: Tmax (following the first dose)): 1.2 h
- Tmax (female, po, 2000 mg/kg/day, females, 2000 mg/kg/day, 0, 8 hours dosing, read-out: Tmax (after the second dose)): 6 h
- AUC (male, oral, 100 mg/kg/day, mice, 100 mg/kg/day, read-out: Average AUC): 3520 ng·h/mL
- AUC(0-t) (male, po, 100 mg/kg/day, Group 1, Male, 100 mg/kg/day (50 mg/kg/dose), oral, dosing at 0, 8 hr, read-out: AUC0-8): 1950 ng·h/mL
- AUC(0-t) (male, po, 100 mg/kg/day, Group 1, Male, 100 mg/kg/day (50 mg/kg/dose), oral, dosing at 0, 8 hr, read-out: AUC0-24): 3520 ng·h/mL
- AUC (male, po, 100 mg/kg/day, Group 1, Male, 100 mg/kg/day (50 mg/kg/dose), oral, dosing at 0, 8 hr, read-out: AUC8-24): 1570 ng·h/mL
- Cmax (male, po, 100 mg/kg/day, Group 1, Male, 100 mg/kg/day (50 mg/kg/dose), oral, dosing at 0, 8 hr, read-out: Cmax): 764 ng/mL
- Tmax (male, po, 100 mg/kg/day, Group 1, Male, 100 mg/kg/day (50 mg/kg/dose), oral, dosing at 0, 8 hr, read-out: Tmax): 9 h
- Tmax (male, po, 100 mg/kg/day, mice, 100 mg/kg/day (50 mg/kg/dose×2) oral, 1 hour after the second dose, read-out: Average Tmax): 9 h
- Cmax (male, po, 100 mg/kg/day, mice, 100 mg/kg/day (50 mg/kg/dose×2) oral, read-out: Average Cmax): 764 ng/mL
- AUC(0-t) (male, po, 100 mg/kg/day, mice, 100 mg/kg/day (50 mg/kg/dose×2) oral, read-out: Average daily AUC0-24): 3520 ng·h/mL
- AUC(0-inf) (male, po, 300 mg/kg/day, Group 2, Male, 300 mg/kg/day (150 mg/kg/dose), oral, dosing at 0, 8 hr): 9930 ng·h/mL
- AUC(0-t) (male, po, 300 mg/kg/day, Group 2, Male, 300 mg/kg/day (150 mg/kg/dose), oral, dosing at 0, 8 hr, read-out: AUC0-8): 5030 ng·h/mL
- AUC(0-t) (male, po, 300 mg/kg/day, Group 2, Male, 300 mg/kg/day (150 mg/kg/dose), oral, dosing at 0, 8 hr, read-out: AUC0-24): 9900 ng·h/mL
- AUC (male, po, 300 mg/kg/day, Group 2, Male, 300 mg/kg/day (150 mg/kg/dose), oral, dosing at 0, 8 hr, read-out: AUC8-24): 4870 ng·h/mL
- Cmax (male, po, 300 mg/kg/day, Group 2, Male, 300 mg/kg/day (150 mg/kg/dose), oral, dosing at 0, 8 hr, read-out: Cmax): 1720 ng/mL
- Tmax (male, po, 300 mg/kg/day, Group 2, Male, 300 mg/kg/day (150 mg/kg/dose), oral, dosing at 0, 8 hr, read-out: Tmax): 8.8 h
- half-life (male, po, 300 mg/kg/day, Group 2, Male, 300 mg/kg/day (150 mg/kg/dose), oral, dosing at 0, 8 hr, read-out: t1/2 (converted)): 0.971 h
- AUC(0-t) (male, po, 1000 mg/kg/day, Group 3, Male, 1000 mg/kg/day (500 mg/kg/dose), oral, dosing at 0, 8 hr, read-out: AUC0-8): 13800 ng·h/mL
- AUC(0-t) (male, po, 1000 mg/kg/day, Group 3, Male, 1000 mg/kg/day (500 mg/kg/dose), oral, dosing at 0, 8 hr, read-out: AUC0-24): 29900 ng·h/mL
- AUC (male, po, 1000 mg/kg/day, Group 3, Male, 1000 mg/kg/day (500 mg/kg/dose), oral, dosing at 0, 8 hr, read-out: AUC8-24): 16100 ng·h/mL
- Cmax (male, po, 1000 mg/kg/day, Group 3, Male, 1000 mg/kg/day (500 mg/kg/dose), oral, dosing at 0, 8 hr, read-out: Cmax): 3610 ng/mL
- Tmax (male, po, 1000 mg/kg/day, Group 3, Male, 1000 mg/kg/day (500 mg/kg/dose), oral, dosing at 0, 8 hr, read-out: Tmax): 10.2 h
- Tmax (male, po, 2000 mg/kg/day, 0, 8 hours dosing, all groups except females at 2000 mg/kg/day, read-out: Tmax (post dose, following the second dose)): 0.8 to 2.2 h
- AUC(0-inf) (male, po, 2000 mg/kg/day, Group 4, Male, 2000 mg/kg/day (1000 mg/kg/dose), oral, dosing at 0, 8 hr): 43100 ng·h/mL
- AUC(0-t) (male, po, 2000 mg/kg/day, Group 4, Male, 2000 mg/kg/day (1000 mg/kg/dose), oral, dosing at 0, 8 hr, read-out: AUC0-8): 20500 ng·h/mL
- AUC(0-t) (male, po, 2000 mg/kg/day, Group 4, Male, 2000 mg/kg/day (1000 mg/kg/dose), oral, dosing at 0, 8 hr, read-out: AUC0-24): 43000 ng·h/mL
- AUC (male, po, 2000 mg/kg/day, Group 4, Male, 2000 mg/kg/day (1000 mg/kg/dose), oral, dosing at 0, 8 hr, read-out: AUC8-24): 22500 ng·h/mL
- Cmax (male, po, 2000 mg/kg/day, Group 4, Male, 2000 mg/kg/day (1000 mg/kg/dose), oral, dosing at 0, 8 hr, read-out: Cmax): 5080 ng/mL
- Tmax (male, po, 2000 mg/kg/day, Group 4, Male, 2000 mg/kg/day (1000 mg/kg/dose), oral, dosing at 0, 8 hr, read-out: Tmax): 9 h
- half-life (male, po, 2000 mg/kg/day, Group 4, Male, 2000 mg/kg/day (1000 mg/kg/dose), oral, dosing at 0, 8 hr, read-out: t1/2 (converted)): 2.02 h
- AUC(0-inf) (male, po, 2000 mg/kg/day, Group 5, Male, 2000 mg/kg/day (1000 mg/kg/dose), oral, dosing at 0, 12 hr): 31300 ng·h/mL
- AUC(0-t) (male, po, 2000 mg/kg/day, Group 5, Male, 2000 mg/kg/day (1000 mg/kg/dose), oral, dosing at 0, 12 hr, read-out: AUC0-12): 17800 ng·h/mL
- AUC(0-t) (male, po, 2000 mg/kg/day, Group 5, Male, 2000 mg/kg/day (1000 mg/kg/dose), oral, dosing at 0, 12 hr, read-out: AUC0-24): 31100 ng·h/mL
- AUC (male, po, 2000 mg/kg/day, Group 5, Male, 2000 mg/kg/day (1000 mg/kg/dose), oral, dosing at 0, 12 hr, read-out: AUC12-24): 13300 ng·h/mL
- Cmax (male, po, 2000 mg/kg/day, Group 5, Male, 2000 mg/kg/day (1000 mg/kg/dose), oral, dosing at 0, 12 hr, read-out: Cmax): 6440 ng/mL
- Tmax (male, po, 2000 mg/kg/day, Group 5, Male, 2000 mg/kg/day (1000 mg/kg/dose), oral, dosing at 0, 12 hr, read-out: Tmax): 1.1 h
- half-life (male, po, 2000 mg/kg/day, Group 5, Male, 2000 mg/kg/day (1000 mg/kg/dose), oral, dosing at 0, 12 hr, read-out: t1/2 (converted)): 1.36 h
- Tmax (male, po, 2000 mg/kg/day, males, 0, 12 hour dosing, read-out: Tmax (following the first dose)): 1.1 h
- half-life (male, po, mice, all dose levels where calculated, read-out: Half-lives): 1 to 2 h
